Laboratory results published in US20250002491A1, “N,N-DIMETHYL-4-(7-(N-(1-METHYLCYCLOPROPYL)SULFAMOYL)-IMIDAZO[1,5-A]PYRIDIN-5-YL)PIPERAZINE-1-CARBOXAMIDE DERIVATIVES AND THE CORRESPONDING PYRAZOLO[1,5-A]PYRIDINE DERIVATIVES AS PARG INHIBITORS FOR THE TREATMENT OF CANCER” (FORX THERAPEUTICS AG, priority 2021, published 2025).
Read-outs that look alike come from different tables or passages of the source.

Legend:
[1] = target: T1, hPARG (Homo sapiens, UniProt Q86W56, A967T/C963S/D927K/H446G/I916T/L447S/L473S/M841I/N479S/R811K/S802A/S858P/T924D); assay: PARG enzymatic IC50 assay (absorbance, ADP-ribose-pNP substrate); format: biochemical; conditions: 2 hours incubation of enzyme with compound; 30 nM hPARG, 800 μM ADP-pNP; read-out: IC50 in μM determined in PARG enzymatic assay (PARG protein and 2 hours incubation)
T1 construct: human PARG (448-976 [H446G, L447S, L473S, N479S); 6His-TwinStrep (protease-cleavable) (N, cleaved yes); host or cells: E. coli BL21 (DE3)
Method: A codon optimized gene encoding human PARG (448-976 [H446G, L447S, L473S, N479S, S802A, R811K, M841I, S858P, 1916T, T924D, D927K, C963S, A967T]) was synthesized by Genscript, and cloned into pET15b (Ncol/BamHI) with an N-terminal, Thrombin protease cleavable 6His-TwinStrep tag. Expression of the protein in E. coli BL21 (DE3) was induced by addition of 0.2 mM IPTG to a shake flask culture grown to OD600=0.8 at 37° C. Growth was allowed to continue at 30° C. for a further 20 hours before harvesting by centrifugation and storage of the cell pellet at −80° C.
Protein was purified by IMAC and SEC: frozen cell pellets (typically 40 g wet weight) were resuspended by homogenization in 5 volumes buffer A (25 mM Tris/HCl pH 8.0, 200 mM NaCl, 2 mM DTT), supplemented with 1 mg of DNase I from bovine pancreas (Sigma-Aldrich) and protease inhibitors (Roche Complete™ EDTA-free protease inhibitor tablet), and lysed by passage through a Constant Systems BasicZ homogenizer. The lysate was clarified by centrifugation for 60 minutes at 25,000 g, 4° C., and the lysate supernatant was loaded onto 5 ml StrepTrap HP (Cytiva) pre-equilibrated with buffer A. The column was washed with buffer A (˜10 CV), then buffer B containing 1M KCl (˜5 CV), and then the protein was eluted with buffer A containing 2.5 mM d-Desthiobiotin. Pooled fractions containing 6HisTwinStrep-TEV-hPARG were incubated with TEV protease overnight at 4° C. hPARG was separated from uncleaved material and Thrombin protease through gel filtration with Superdex75 sizing column (GE Healthcare) pre-equilibrated with SEC buffer (15 mM Tris/HCl pH 8.5, 100 mM NaCl, 2 mM DTT). Pooled fractions containing pure hPARG were concentrated using a 10 k MWCO spin concentrator (VivaSpin) to 10 mg/mL, and then either used immediately for crystallisation or snap-frozen in liquid nitrogen for storage at −80° C.
PARG Enzymatic IC50 Assay
PARG enzyme as incubated with compound or vehicle (DMSO) for 15 minutes or 2 hours in a 384 well plate. After adding the PARG substrate ADP-ribose-pNP, the plate was read for absorbance intensity at 405 nm. The vehicle (DMSO) with high absorbance intensity represents no inhibition of enzymatic reaction while the low control (no enzyme) with low absorbance intensity represents full inhibition of enzymatic reaction.
• hPARG: Peak Protein, 30 nM • Substrate: ADP-pNP, 800 μM, Jena Bioscience catalog #NU-955 • Reaction time: 60 minutes • Assay buffer: 50 mM Tris-HCl pH 8.0, 100 mM NaCl, 2 mM DTT • Temperature: 30° C. • Total volume: 30 μL
• 0% inhibition control: DMSO • 100% inhibition control: No enzyme
The protocol that was used for enzyme reaction and detection is as follows: • 1. Transfer 100 nL of the final concentration of test compounds or vehicle (DMSO) to the appropriate wells of a microtiter plate. • 2. Centrifuge the plate at 1000 rpm for 1 minute. • 3. Transfer 14.6 μL of 2× final concentration of enzyme in assay buffer or assay buffer alone to the appropriate wells. • 4. Centrifuge the plate at 1000 rpm for 1 minute. • 5. Incubate the plate at room temperature for 15 minutes or 2 hours. • 6. Transfer 15.4 μL of 2× substrate in assay buffer to all the test wells. • 7. Centrifuge the plate at 1000 rpm for 1 minute. • 8. Read the plate on a plate reader (e.g., Spark Tecan).

[2] = tested on: U2OS cells; assay: Cellular viability assay (Cell Titer-Glo), U2OS; format: cell-based; conditions: Homo sapiens; U2OS (PARG-inhibition insensitive), 96 hours of incubation; read-out: EC50 in μM determined in U2OS cells as described under Cellular viability assay
Method: (§1) NCIH-460 as a PARG-inhibition sensitive cell line and U2OS as PARG-inhibition insensitive cell line were plated at 1000 cells/well and 2000 cells/well, respectively, in 96-well white plates with clear flat bottom. After 24 hours, the compounds were added with the Tecan digital dispenser (D300e), in duplicates. The outer wells of the plate were excluded. After 96 hours of incubation, 150 μl of the growth medium were removed and 50 μl of Cell Titer-Glo (Promega) were added per well. Following an incubation of 10 minutes, luminescence was read using a plate reader (Tecan). Averaged values of the samples were normalized to DMSO treated control samples. Curves were fit as % of the control vs. log of the compound concentration using a 4 parameter log-logistic function: […]

[3] = tested on: PARG in U2OS cells; assay: Cellular PAR chain assay (flow cytometry, PAR chain positive cells); format: cell-based; conditions: 1 hour compound pretreatment
Method: The ability of compounds to inhibit PARG in response to DNA damage, was assessed with U2OS cells pretreated with the compounds for 1 hour, following a 1-hour treatment with or without the DNA alkylating agent temozolomide (TMZ). […] The cells were incubated for 2 hours at room temperature with a mouse monoclonal antibody against poly (ADP) ribose (PAR) polymer. The cells were washed and incubated with an anti-mouse Alexa-488 conjugated secondary antibody for 1 hour at room temperature. Propidium iodide staining was used to determine DNA content in the cells (staining at 4° C. overnight). The fluorescence intensity of the cells was assessed by flow cytometry (Cytoflex from Beckmann) and the percentage of PAR chain positive cells (gated in relation to TMZ+DMSO treated control) was determined. PAR chain positive cells % were fit against the concentration of the compound using a 4 parameter log-logistic function, generating PAR chain EC50 values: […]

[4] = tested on: NCIH-460 cells; assay: Cellular viability assay (Cell Titer-Glo), NCIH-460; format: cell-based; conditions: Homo sapiens, NCI-H460; NCIH-460 (PARG-inhibition sensitive), 96 hours of incubation; read-out: EC50 in μM determined in NCIH-460 cells as described under Cellular viability assay
Method: as §1

[5] = without TMZ, read-out: EC50 in μM determined in cellular assay as described under Cellular PAR chain assay (conditions without treatment of TMZ)
[6] = Homo sapiens, then 1-hour treatment with TMZ, read-out: EC50 in μM determined in cellular assay as described under Cellular PAR chain assay (conditions with treatment of TMZ)

T1 sequence (Q86W56 446-976 H446G/L447S/L473S/N479S/S802A/R811K/M841I/S858P/I916T/T924D/D927K/C963S/A967T): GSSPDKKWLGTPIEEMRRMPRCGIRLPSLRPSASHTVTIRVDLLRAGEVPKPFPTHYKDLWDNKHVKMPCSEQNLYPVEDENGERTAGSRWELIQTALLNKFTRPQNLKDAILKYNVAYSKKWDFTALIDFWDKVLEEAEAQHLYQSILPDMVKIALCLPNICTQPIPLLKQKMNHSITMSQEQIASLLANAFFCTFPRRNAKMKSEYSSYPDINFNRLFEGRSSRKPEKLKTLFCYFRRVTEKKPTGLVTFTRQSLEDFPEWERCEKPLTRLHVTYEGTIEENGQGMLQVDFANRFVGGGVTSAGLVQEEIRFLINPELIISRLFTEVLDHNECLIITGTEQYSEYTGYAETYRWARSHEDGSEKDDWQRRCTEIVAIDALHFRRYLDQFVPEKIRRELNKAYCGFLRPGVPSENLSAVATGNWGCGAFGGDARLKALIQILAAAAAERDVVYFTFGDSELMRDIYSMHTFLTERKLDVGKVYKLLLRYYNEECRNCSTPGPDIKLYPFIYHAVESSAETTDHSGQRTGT

Row | SMILES | IC50 [1] | EC50 [2] | EC50 [3, 5] | EC50 [3, 6] | EC50 [4]
1 | CN(C)C(=O)N1CCN(c2cc(S(=O)(=O)NC3(C)CC3)cc3c(-c4ccc(C(F)F)nc4)cnn23)CC1 [Example 7, 4-(3-(6-(difluoromethyl)pyridin-3-yl)-5-(N-(1-methylcyclopropyl)sulfamoyl)pyrazolo[1,5-a]pyridin-7-yl)-N,N-dimethylpiperazine-1-carboxamide] | 0.028 µM | > 20 µM | > 10 µM | 0.328 µM | 3.94 µM
2 | Cc1ccc(-c2cnn3c(N4CCN(C(=O)N(C)C)CC4)cc(S(=O)(=O)NC4(C)CC4)cc23)cn1 [Example 5, N,N-dimethyl-4-(5-(N-(1-methylcyclopropyl)sulfamoyl)-3-(6-methylpyridin-3-yl)pyrazolo[1,5-a]pyridin-7-yl)piperazine-1-carboxamide] | 0.054 µM | > 20 µM | > 10 µM | 0.223 µM | 3.22 µM
3 | COC(=O)c1cnn2c(N3CCN(C(=O)N(C)C)CC3)cc(S(=O)(=O)NC3(C)CC3)cc12 [Example 8, Methyl 7-(4-(dimethylcarbamoyl)piperazin-1-yl)-5-(N-(1-methylcyclopropyl)sulfamoyl)pyrazolo[1,5-a]pyridine-3-carboxylate] | 0.043 µM | > 20 µM | – | – | 7.22 µM
4 | CN(C)C(=O)N1CCN(c2cc(S(=O)(=O)NC3(C)CC3)cc3c(-c4nnc(C(F)F)s4)cnn23)CC1 [Example 10, 4-(3-(5-(difluoromethyl)-1,3,4-thiadiazol-2-yl)-5-(N-(1-methylcyclopropyl)sulfamoyl)pyrazolo[1,5-a]pyridin-7-yl)-N,N-dimethylpiperazine-1-carboxamide] | 0.042 µM | > 20 µM | > 10 µM | 0.266 µM | 1.3 µM
5 | CN(C)C(=O)N1CCN(c2cc(S(=O)(=O)NC3(C)CC3)cc3c(-c4ccc(C(F)F)nc4)ncn23)CC1 [Example 3, 4-(1-(6-(difluoromethyl)pyridin-3-yl)-7-(N-(1-methylcyclopropyl)sulfamoyl)imidazo[1,5-a]pyridin-5-yl)-N,N-dimethylpiperazine-1-carboxamide] | 0.066 µM | > 20 µM | > 10 µM | 0.218 µM | 4.47 µM
6 | Cc1ccc(-c2ncn3c(N4CCN(C(=O)N(C)C)CC4)cc(S(=O)(=O)NC4(C)CC4)cc23)cn1 [Example 1, N,N-dimethyl-4-(7-(N-(1-methylcyclopropyl)sulfamoyl)-1-(6-methylpyridin-3-yl)imidazo[1,5-a]pyridin-5-yl)piperazine-1-carboxamide] | 0.064 µM | > 16.8 µM | > 10 µM | 1.1 µM | 13.4 µM
7 | Cc1nnc(-c2cnn3c(N4CCN(C(=O)N(C)C)CC4)cc(S(=O)(=O)NC4(C)CC4)cc23)s1 [Example 12, N,N-dimethyl-4-(3-(5-methyl-1,3,4-thiadiazol-2-yl)-5-(N-(1-methylcyclopropyl)sulfamoyl)pyrazolo[1,5-a]pyridin-7-yl)piperazine-1-carboxamide] | 0.038 µM | > 20 µM | > 10 µM | 1.49 µM | 6.05 µM
8 | CN(C)C(=O)N1CCN(c2cc(S(=O)(=O)NC3(C)CC3)cc3c(-c4nnc(C(F)F)o4)cnn23)CC1 [Example 11, 4-(3-(5-(difluoromethyl)-1,3,4-oxadiazol-2-yl)-5-(N-(1-methylcyclopropyl)sulfamoyl)pyrazolo[1,5-a]pyridin-7-yl)-N,N-dimethylpiperazine-1-carboxamide] | 0.098 µM | > 20 µM | > 10 µM | 0.739 µM | 4.58 µM
